These results are taken from ChEMBL document CHEMBL4619782, “The Structural Basis for Nonsteroidal Anti-Inflammatory Drug Inhibition of Human Dihydrofolate Reductase” (J Med Chem, 2020).

As usually defined, the Ki is a dissociation constant, usually derived from enzyme kinetics or from competition with a known ligand. As usually defined, the IC50 is the point on the concentration scale where inhibition reaches its midpoint.

The target of one test is T1, Dihydrofolate reductase (Homo sapiens, UniProt P00374).
T1 sequence (P00374 whole entry): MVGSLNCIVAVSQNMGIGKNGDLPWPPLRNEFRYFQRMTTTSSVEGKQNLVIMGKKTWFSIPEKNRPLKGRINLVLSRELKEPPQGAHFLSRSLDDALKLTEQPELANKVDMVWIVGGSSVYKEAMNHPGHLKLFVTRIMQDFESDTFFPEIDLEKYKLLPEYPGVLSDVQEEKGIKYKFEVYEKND
Nature of the test: Inhibition of human DHFR in presence of DHF and NADPH by UV-vis spectrometry by Lineweaver-Burk plot analysis.

The nature of test [1]: Inhibition of Escherichia coli DHFR.
Test [2] is described as follows: Selectivity index, ratio of Ki for Escherichia coli DHFR to Ki for human DHFR.
Test [3] can be described thus: Selectivity index, ratio of Ki for Lactobacillus casei DHFR to Ki for human DHFR.
Test [4] can be described thus: Inhibition of Lactobacillus casei DHFR. On the set-up: species or system Lacticaseibacillus casei.
Test [5] addresses Bifunctional purine biosynthesis protein ATIC (Homo sapiens, UniProt P31939). Nature of the test: Inhibition of AICAR transformylase (unknown origin).

Bifunctional purine biosynthesis protein ATIC, sequence (P31939 whole entry): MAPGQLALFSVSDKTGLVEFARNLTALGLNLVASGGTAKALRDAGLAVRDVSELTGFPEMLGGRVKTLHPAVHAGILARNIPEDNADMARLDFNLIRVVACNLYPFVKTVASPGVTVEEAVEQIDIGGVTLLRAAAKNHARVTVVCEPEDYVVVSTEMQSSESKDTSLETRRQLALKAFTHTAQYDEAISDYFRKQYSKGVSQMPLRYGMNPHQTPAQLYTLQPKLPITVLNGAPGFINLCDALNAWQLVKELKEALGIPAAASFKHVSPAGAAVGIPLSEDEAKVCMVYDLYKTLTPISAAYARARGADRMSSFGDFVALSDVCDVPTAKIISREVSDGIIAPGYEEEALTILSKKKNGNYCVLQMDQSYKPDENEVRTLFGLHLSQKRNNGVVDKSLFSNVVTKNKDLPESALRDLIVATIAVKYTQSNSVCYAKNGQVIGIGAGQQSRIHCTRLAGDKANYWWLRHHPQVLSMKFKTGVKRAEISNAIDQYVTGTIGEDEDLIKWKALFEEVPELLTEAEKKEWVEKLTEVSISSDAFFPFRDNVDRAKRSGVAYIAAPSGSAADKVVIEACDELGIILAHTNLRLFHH

In the case of `O=C(O)c1cc(-c2ccccc2)ccc1O`, at Dihydrofolate reductase, the inhibition constant (Ki) amounted to 48 µM. `COc1ccc2cc([C@@H](C)C(=O)O)ccc2c1`: the Ki on Dihydrofolate reductase came out at 3400 µM.

`Nc1ccc(C(=O)N[C@@H](CCC(=O)O)C(=O)O)cc1`: the Ki at Dihydrofolate reductase amounted to 180 µM. In the case of `Nc1ccnc(N)n1` [DIAMINOPYRIMIDINE], the inhibitory constant (Ki) in test [1] and in test [4] was 1800 µM throughout. The Ratio Ki in test [2] and in test [3] was 10 in each case.

On to `O=C(O)Cc1ccccc1Nc1c(Cl)cccc1Cl` [DICLOFENAC], for which, on Dihydrofolate reductase, the inhibition constant (Ki) was determined as 160 µM.

`O=C(O)c1cc(-c2ccc(F)cc2F)ccc1O` [DIFLUNISAL]: at Dihydrofolate reductase, the Ki came out at 34 µM.

On to `CCc1cccc2c3c([nH]c12)C(CC)(CC(=O)O)OCC3` (configuration not stated) [ETODOLAC], for which the inhibitory constant (Ki) at Dihydrofolate reductase was determined as 1800 µM. In the case of `O=C(O)CCC(=O)c1ccc(-c2ccccc2)cc1` [FENBUFEN], the Ki on Dihydrofolate reductase was 360 µM. The same measure, in the same setting: for `O=C(O)CNC(=O)c1ccccc1` [HIPPURIC ACID] the value was 17000 µM; for `CC(C)Cc1ccc(C(C)C(=O)O)cc1` (configuration not stated) [IBUPROFEN], 560 µM; for `Cc1cccc(Nc2ccccc2C(=O)O)c1C` [MEFENAMIC ACID], 72 µM. As to `CN(C)C(=N)NC(=N)N` [METFORMIN], the IC50 in test [1] worked out at 17900 µM. The inhibition constant (Ki) at Dihydrofolate reductase was found to be 18000 µM.

Turning to `COc1ccc2cc([C@H](C)C(=O)O)ccc2c1` [NAPROXEN], the inhibitory constant (Ki) at Dihydrofolate reductase is 7000 µM.

In the case of `N=C(N)NC(=N)NCCc1ccccc1` [PHENFORMIN], in test [1], the midpoint of inhibition, the IC50, lay at 170 µM. For the same compound, the Ki on Dihydrofolate reductase was 140 µM. In test [5], `O=C(O)c1cc(/N=N/c2ccc(S(=O)(=O)Nc3ccccn3)cc2)ccc1O` [SULFASALAZINE] returned an inhibition constant Ki of 22 µM. Turning to `N[C@@H](Cc1c[nH]c2ccccc12)C(=O)O` [TRYPTOPHAN], at Dihydrofolate reductase, the concentration for half-maximal inhibition (IC50) is 6500 µM and the Ki turned out to be 2800 µM.
